Assay results: publication PMC12552953, “SA-XV, a 15-amino acid fragment of host defense peptide S100A12, targets mitochondria and is protective against fungal infections” (The Journal of Biological Chemistry, 2025)
Like-named read-outs stand apart in the source and are kept apart here. Where no end group is shown, it is not given here.

Key:
C. albicans = format: cell-based, Candida albicans
Experimental: Fusarium spp. or Candida spp. (1 × 10^4 conidia) were incubated with 60 μM of FITC-SA-XV at 4 °C or 29 °C or different time points in SDB. The conidia were then washed three times with Milli-Q water and fixed using 4% paraformaldehyde. In some experiments, DAPI (Vectashield) or MitoTracker (Invitrogen) were used to stain specific cell organelles. In a different experiment, cytochrome c was detected in peptide-treated or untreated cells by incubating with anti–cytochrome c antibody (1:100 dilution; BioLegend), followed by Alexa Fluor 488 secondary antibody (1:1000 dilution; Thermo Fisher Scientific). In a separate experiment, the spores were incubated with SA-XV for 4 h in the presence or absence of FD (SR LifeScience Solution) of different molecular weights, washed with Milli-Q water, and fixed using 4% paraformaldehyde. The conidia were imaged using a 63× objective in a confocal microscope (LSM 880; Zeiss).

Fusarium solani = format: cell-based; conditions: 48 h
Experimental: (§1) The ocular clinical isolates of F. solani (n = 5) and C. albicans (n = 5) were obtained from Jhaveri Microbiology Centre, LVPEI, India. The isolates were grown at 29 °C in Sabouraud dextrose broth (SDB; Himedia) for 48 h. Fusarium conidia (spores) were harvested as described before ([69]), centrifuged at 8000 rpm for 15 min to pellet the conidia, washed in 10 mM phosphate buffer (pH 7.4) twice, and resuspended in the same. Candida was grown in SDB overnight, centrifuged, washed, and resuspended similarly. F. solani and C. albicans (1 × 10^4 conidia) were grown in the presence or absence of different concentrations of SA-XV in SDB in a 96-well microtiter plate and incubated at 29 °C for 24 h. Negative controls consisting of fungus only and a positive control consisting of fungus treated with AmpB (55 μM) were incubated simultaneously. The culture was then diluted accordingly and plated in potato dextrose agar (PDA) plates and incubated further for 24 h. The effect of the peptide was determined by quantifying the CFUs on the PDA plates. The effect of SA-XV on A. flavus was also determined similarly. All the experiments were performed at least thrice and in triplicate.

[1] = system: Fusarium spp. ocular clinical isolates; format: cell-based; conditions: 48 h
Experimental: as §1

Candida albicans = format: cell-based; conditions: 48 h
Experimental: as §1

[2] = n = 3
[3] = system: C. albicans ocular clinical isolates; format: cell-based, Candida albicans; conditions: 48 h
Experimental: as §1

chorioallantoic membrane = system: chorioallantoic membrane; set-up: species or system hen
Experimental: (§2) Supplementary experimental procedures
Cell culture and in vitro scratch assay […]
SA-XV was added directly onto the chorioallantoic
M sodium hydroxide solution.

[4] = increased concentration of SA-XV
Experimental: Fungal model membrane mimics composing 5:4:3 POPC/POPE/ERG were created following the standard protocol. […] The lipid film was created after drying in a stream of nitrogen gas and lyophilizing overnight. The lipid film was then hydrated with 70 mM calcein dissolved in 10 mM Tris buffer (pH 7.4), followed by vigorous vortexing for 30 min and subjecting to five freeze–thaw cycles in liquid nitrogen and lukewarm water to obtain the dye-entrapped vesicles. The vesicles were then passed through a 100-nm polycarbonate membrane filter stacked in a mini extruder (Avanti Polar Lipids) set up to obtain LUVs. […]
Dye-encapsulated liposomes were suspended in an extravesicular buffer containing 10 mM Tris buffer and 100 mM NaCl (pH 7.4). The leakage of calcein caused by liposome disruption was analyzed by fluorescence emission at 519 nm using a JASCO F-8500 fluorescence spectrophotometer. […] S100A12 was added at functional concentrations, and enhancement in fluorescence was measured. […] Percentage leakage was calculated using the equation. […]
where, F0, F, and FT denote the basal fluorescence intensity, fluorescence intensity after addition of peptides, and maximum fluorescence intensity obtained after addition of 0.1% Triton X-100, respectively.

[5] = peptide-free 41.6 ppm
Experimental: A single 90° pulse ^31P solid-state NMR experiment was performed on an Agilent NMR spectrometer (DD2) equipped with a 4 mm MAS HXY Solid Probe. Resonance frequencies were 699.88 MHz and 283.31 MHz for ^1H and ^31P, respectively. The TPPM ^1H-decoupled condition was used. LUVs were kept in a diameter of 4 mm Pyrex glass tube sealed with parafilm at an ambient temperature. ^31P spectra were collected with 512∼1000 scans and a recycle delay of 2 s. The spectra were referenced externally to 85% phosphoric acid (0 ppm).
^31P solid-state NMR experiments were performed using the Agilent NMR spectrometer (DD2) functioning at the resonance frequency of 283.31 MHz for ^31P and 699.88 MHz for ^1H, equipped with a 4 mm MAS HXY Solid Probe. MLVs were prepared by dissolving POPC, POPE, and ERG (5:4:3) in chloroform to obtain a stock of 5 mg/ml. The lipid mixtures were dried under nitrogen gas, lyophilized overnight followed by dissolving the lipid film in Tris buffer (pH 7.4), and hydrated for 1 h by vortexing occasionally and freeze–thawing five times. A single 90◦ pulse and 24 kHz TPPM proton decoupling were used. The π/2 pulse lengths were set at 6.8 μs for the ^31P nucleus. MLVs were kept in a 4 mm Pyrex glass tube, which was fit into the MAS probe, and sealed with parafilm. […] MestReNova software (version 8.1) with 250 Hz line broadening was used for spectra processing.

C. albicans biofilm = format: cell-based, Candida albicans; conditions: 24 h, 60 μM
[6] = system: human corneal epithelial cells (HCEC); experiment: in vitro; format: cell-based
Experimental: as §2
(§3) Cell culture and in vitro scratch assay
(§4) Aldrich, St. Louis, MO) as described earlier (3). In brief, cells (2x10^4 cells/well) were seeded into 96 well plates and cultured overnight. Cells were treated with different concentration of […]
(§5) reader SpectraMax M3 (Softmax Pro 6.3). […]

in vitro [7] = format: cell-based, human; conditions: human
Experimental: as §2, §3, §4, §5

[8] = system: sinonasal epithelial cells (SNEC); format: cell-based
Experimental: as §2, §3, §4, §5

[9] = system: peripheral blood mononuclear cells (PBMC); format: cell-based
Experimental: as §2, §3, §4, §5

in vitro [10] = conditions: 25% fetal bovine serum in RPMI media
Experimental: mentioned previously (5).
supplemented with 25% FBS at 37 °C for 15 min. 100 µl aliquots were taken at different time
intervals (0, 30, 60, 120, 180, and 240 min). 200 µl of 96% ethanol was added to precipitate the
serum followed by centrifugation at 12000 x g for 2 min. 20 µl of the supernatant was subjected
to a LC-20AT reverse phase HPLC system (SHIMADZU, Japan) equipped with Phenomenix
C18 column (250x10 mm, pore size 100 Å, particle size 5 µm), at room temperature, using
acetonitrile and water with 0.1 % TFA as the solvents. A flow rate of 1ml/min was maintained.
The percentage of peptide remaining in the supernatant at different time intervals were analysed
by peak integration using SPINCHROME CFR software, and the area obtained was normalized with respect to the free peptide.

[11] = system: T7 RNA polymerase, plasmid DNA; experiment: In vitro transcription assay; format: biochemical; conditions: 2 h, 37 °C, agarose gel
Experimental: In vitro transcription assay was done using the commercial kit Riboprobe System-T7 (Promega), according to the instructions for positive control samples but adding different concentrations of peptide to the reactions. As a negative control, the DNA template was omitted from the reaction mix. After 2 h of incubation at 37 °C, samples were run in a 1.2% agarose gel in TAE buffer and imaged using the Gel Doc System (Bio-Rad).

F. solani = experiment: Murine model of F. solani keratitis; conditions: 48 h postinfection; SA-XV at 0 and 6 h or 6 and 18 h, AmpB at 0 and 6 h
Experimental: C57BL/6 mice (6–8 weeks old) were anesthetized by intraperitoneal injection using ketamine (8.7 mg/ml) and xylazine (0.5 mg/ml) at a dose of 120 μl/g body weight. While anesthetized, the corneal epithelium was abraded with three parallel vertical and horizontal scratches with a 26-gauge needle, and F. solani (10^7 conidia in 2.5 μl) were added in one eye, whereas the fellow eye received 1× PBS (n = 5). […] One more group of mice (n = 5) was infected with F. solani followed by topical application of AmpB (5 μg) at 0 and 6 h postinfection. Mice were euthanized and examined under a stereomicroscope for density and area of corneal opacification or ulceration 48 h postinfection and photographed using a digital camera. Clinical scores for the opacity were determined in a blinded fashion according to the scale earlier reported ([90]), eyes were enucleated and homogenized using a tissue homogenizer (Ez-Lyzer; Genetix Biotech) in sterile 1× PBS, and homogenates were plated on PDA plates for determining CFUs.

| Compound | translocation into fungal cells (C. albicans) | MIC90 (Fusarium solani) [µM] | % Growth Inhibition by SA-XV (60 μM) [1] [%] | MIC90 (Candida albicans) [µM] | histopathology of corneal sections [2] | corneal findings ([2]; peptide four times at 3 h interval for 2 days, no edema or hyperemia) | % Growth Inhibition by SA-XV (60 μM) [3] [%] | irritation effect (chorioallantoic membrane) | penetration into HCECs (HCECs) | dye leakage from fungal-membrane liposomes [4] | chemical shift anisotropy span ([5]; 1 mol% peptide) [ppm] | chemical shift anisotropy span ([5]; 3 mol% peptide) [ppm] | inhibition of biofilm formation (C. albicans biofilm) | cytotoxicity [6] | IC50 at 24 h (in vitro [7]) [µM] | cytotoxicity [8] | cytotoxicity [9] | half-life at 1 mg/ml (in vitro [10]) [h] | RNA synthesis in vitro [11] | corneal opacification (F. solani) |
| --- | --- | --- | --- | --- | --- | --- | --- | --- | --- | --- | --- | --- | --- | --- | --- | --- | --- | --- | --- | --- |
| VAIALKAAHYHTHKE [SA-XV] | translocates | 15 | 99.99 | 15 | no damages or abnormalities | no corneal erosions or opacity | 99.99 | nonirritant | to some extent | Increased dye leakage | 44.6 | 46.4 | more than 70% | did not show any substantial cytotoxicity | 302 | did not show any substantial cytotoxicity | did not show any substantial cytotoxicity | > 3 | – | – |
| C[C@@H]1[C@H](O)[C@@H](C)/C=C/C=C/C=C/C=C/C=C/C=C/C=C/[C@H](O[C@@H]2O[C@H](C)[C@@H](O)[C@H](N)[C@@H]2O)C[C@@H]2O[C@](O)(C[C@@H](O)C[C@@H](O)[C@H](O)CC[C@@H](O)C[C@@H](O)CC(=O)O[C@H]1C)C[C@H](O)[C@H]2C(=O)O [AmpB, amphotericin B] | – | – | – | – | – | – | – | – | – | – | – | – | – | – | – | – | – | – | did not show any appreciable effect | Distinct reduced opacification |
